Our source for the melting point values is patent US7928098B2, “Therapeutic and/or preventive agents for a sleep disorder” (Kyowa Hakko Kirin Co., Ltd., priority 2005, dated 2011).

By melting point is commonly meant the temperature of the solid-liquid transition.

The compound `COCCN(C)c1cc(C(=O)Nc2nc(-c3ccco3)c(C(=O)c3ccccn3)s2)ccn1` [Compound 125, N-[4-(2-Furyl)-5-(pyridin-2-ylcarbonyl)thiazol-2-yl]-2-[N-(2-methoxyethyl)-N-methylamino]pyridine-4-carboxamide] displayed a melting point of 114 to 117 °C.

Compound `O=C(Nc1nc(-c2ccco2)c(C(=O)c2ccccn2)s1)c1ccnc(N2CCCCC2)c1` [Compound 126, N-[4-(2-Furyl)-5-(pyridin-2-ylcarbonyl)thiazol-2-yl]-2-piperidinopyridine-4-carboxamide] registered a melting point of 136 to 141 °C.

`O=C(Nc1nc(-c2ccco2)c(C(=O)c2ccccn2)s1)c1ccnc(N2CCOCC2)c1` [Compound 127, N-[4-(2-Furyl)-5-(pyridin-2-ylcarbonyl)thiazol-2-yl]-2-morpholinopyridine-4-carboxamide] displayed a melting point of 216 to 217 °C.

Take `Cc1ncccc1C(=O)Nc1nc(-c2ccco2)c(C(=O)c2ccccn2)s1` [Compound 129, N-[4-(2-Furyl)-5-(pyridin-2-ylcarbonyl)thiazol-2-yl]-2-methylpyridine-3-carboxamide]: the melting point is 186 to 187 °C.

Compound `Cc1ccc(C(=O)Nc2nc(-c3ccco3)c(C(=O)c3ccccn3)s2)cn1` [Compound 130, N-[4-(2-Furyl)-5-(pyridin-2-ylcarbonyl)thiazol-2-yl]-2-methylpyridine-5-carboxamide] returned a melting point of 210 to 215 °C.

In the case of `Cc1cncc(C(=O)Nc2nc(-c3ccco3)c(C(=O)c3ccccn3)s2)c1` [Compound 131, N-[4-(2-Furyl)-5-(pyridin-2-ylcarbonyl)thiazol-2-yl]-5-methylpyridine-3-carboxamide], the melting point was 245 to 248 °C.

For `COc1ccc(C(=O)Nc2nc(-c3ccco3)c(C(=O)c3ccccn3)s2)c(OC)n1` [Compound 132, N-[4-(2-Furyl)-5-(pyridin-2-ylcarbonyl)thiazol-2-yl]-2,6-dimethoxypyridine-3-carboxamide], the melting point lay in the range of 201 to 202 °C.

Consider `O=C(Nc1nc(-c2ccco2)c(C(=O)c2ccccn2)s1)c1cncc(Br)c1` [Compound 134, 5-Bromo-N-[4-(2-furyl)-5-(pyridin-2-ylcarbonyl)thiazol-2-yl]pyridine-3-carboxamide], for which the melting point is 259 to 262 °C.

`O=C(Nc1nc(-c2ccco2)c(C(=O)c2ccccn2)s1)c1ccnnc1` [Compound 135, N-[4-(2-Furyl)-5-(pyridin-2-ylcarbonyl)thiazol-2-yl]pyridazine-4-carboxamide]: the melting point lay within 270 to 274 °C.

Consider `O=C(Nc1nc(-c2ccco2)c(C(=O)c2ccccn2)s1)c1cnc(C2CC2)nc1` [Compound 137, 2-Cyclopropyl-N-[4-(2-furyl)-5-(pyridin-2-ylcarbonyl)thiazol-2-yl]pyrimidine-5-carboxamide], for which the melting point is 150 to 154 °C.

Compound `Cc1cnc(C(=O)Nc2nc(-c3ccco3)c(C(=O)c3ccccn3)s2)cn1` [Compound 138, N-[4-(2-Furyl)-5-(pyridin-2-ylcarbonyl)thiazol-2-yl]-5-methylpyrazine-2-carboxamide] returned a melting point of 208 to 209 °C.

Turning to `O=C(Nc1nc(-c2ccco2)c(C(=O)c2ccccn2)s1)c1cc[nH]c(=O)c1` [Compound 139, N-[4-(2-Furyl)-5-(pyridin-2-ylcarbonyl)thiazol-2-yl]-2-oxo-1,2-dihydropyridine-4-carboxamide], the melting point is 170 to 180 °C (dec.).

As for `O=C(Nc1nc(-c2ccco2)c(C(=O)c2ccccn2)s1)c1ccn(Cc2ccccc2)c(=O)c1` [Compound 140, 1-Benzyl-N-[4-(2-furyl)-5-(pyridin-2-ylcarbonyl)thiazol-2-yl]-2-oxo-1,2-dihydropyridine-4-carboxamide], the melting point is 269 to 270 °C.

`Cn1ccc(C(=O)Nc2nc(-c3ccco3)c(C(=O)c3ccccn3)s2)cc1=O` [Compound 141, N-[4-(2-Furyl)-5-(pyridin-2-ylcarbonyl)thiazol-2-yl]-1-methyl-2-oxo-1,2-dihydropyridine-4-carboxamide] returned a melting point of 280 to 285 °C.
